Source: paper PMC4303209, “A novel phosphatidylinositol 3-kinase (PI3K) inhibitor directs a potent FOXO-dependent, p53-independent cell cycle arrest phenotype characterized by the differential induction of a subset of FOXO-regulated genes” (Breast Cancer Research : BCR, 2014)

Tested on: MCF-7 breast cancer cells
Test: Microarray gene expression analysis (Agilent whole human genome 4 x 44K; compound vs DMSO, LIMMA log2 fold change)
Assay type: cell-based
Conditions: cell cycle genes

Oc1cccc(-c2nc(N3CCOCC3)c3oc4ncccc4c3n2)c1 [PI-103]
TUBB3 log2FC (Gene 10381): -0.59 | ANAPC10 log2FC (Gene 10393): 0.20 | NDRG1 log2FC (Gene 10397): 1.49 | GNB2L1 log2FC (Gene 10399): -0.0332 | PRMT5 log2FC (Gene 10419): -0.13 | MAD2L2 log2FC (Gene 10459): 0.16 | TACC3 log2FC (Gene 10460): -0.29 | CREB3 log2FC (Gene 10488): -0.0661 | MYBBP1A log2FC (Gene 10514): -0.30 | CIB1 log2FC (Gene 10519): -0.08 | SSSCA1 log2FC (Gene 10534): -0.27 | DCTN2 log2FC (Gene 10540): 0.11 | SMC2 log2FC (Gene 10592): 0.63 | ERN2 log2FC (Gene 10595): -0.68 | USP16 log2FC (Gene 10600): 0.68 | HEXIM1 log2FC (Gene 10614): -0.43 | SPAG5 log2FC (Gene 10615): 0.36 | STAMBP log2FC (Gene 10617): 0.27 | TXNIP log2FC (Gene 10628): 2.21 | PDPN log2FC (Gene 10630): -0.0347 | RGS14 log2FC (Gene 10636): 0.71 | CTCF log2FC (Gene 10664): -0.22 | CGRRF1 log2FC (Gene 10668): 0.54 | CGREF1 log2FC (Gene 10669): 0.00665 | USP39 log2FC (Gene 10713): -0.0422 | NUDC log2FC (Gene 10726): -0.38 | PLK4 log2FC (Gene 10733): 0.52 | STAG3 log2FC (Gene 10734): 0.43 | STAG2 log2FC (Gene 10735): 1.19 | NES log2FC (Gene 10763): -0.28 | PLK2 log2FC (Gene 10769): -0.93 | NEK6 log2FC (Gene 10783): -0.68 | SDCCAG8 log2FC (Gene 10806): 0.62 | TUBGCP2 log2FC (Gene 10844): 0.037 | LILRB1 log2FC (Gene 10859): -0.21 | USP19 log2FC (Gene 10869): 0.38 | BLCAP log2FC (Gene 10904): -0.47 | TXNL4A log2FC (Gene 10907): -0.46 | SUGT1 log2FC (Gene 10910): 0.24 | GADD45G log2FC (Gene 10912): -0.19 | EHMT2 log2FC (Gene 10919): 0.25 | BTG3 log2FC (Gene 10950): 0.00788 | MAPRE2 log2FC (Gene 10982): -0.34 | KIF2C log2FC (Gene 11004): 0.44 | TLK2 log2FC (Gene 11011): 0.62 | RAB35 log2FC (Gene 11021): -0.44 | TDRKH log2FC (Gene 11022): 0.0086 | PIM2 log2FC (Gene 11040): -0.54 | UBE2C log2FC (Gene 11065): -0.18 | TRIOBP log2FC (Gene 11078): 0.53 | NUPL2 log2FC (Gene 11097): -0.024 | KATNA1 log2FC (Gene 11104): 0.67 | PRDM4 log2FC (Gene 11108): 0.26 | CIT log2FC (Gene 11113): 0.53 | ZWINT log2FC (Gene 11130): -0.23 | CDC37 log2FC (Gene 11140): -0.17 | LZTS1 log2FC (Gene 11178): -0.98 | WDR6 log2FC (Gene 11180): -0.36 | RASSF1 log2FC (Gene 11186): 0.72 | CEP250 log2FC (Gene 11190): -0.14 | PMF1 log2FC (Gene 11243): -0.18 | DCTN3 log2FC (Gene 11258): 0.31 | TUSC2 log2FC (Gene 11334): -0.50 | OIP5 log2FC (Gene 11339): 0.0365 | MAPRE1 log2FC (Gene 22919): -0.57 | MAPRE3 log2FC (Gene 22924): 0.0211 | TRIM32 log2FC (Gene 22954): -0.32 | TPX2 log2FC (Gene 22974): -0.00173 | AZI1 log2FC (Gene 22994): 0.93 | CEP152 log2FC (Gene 22995): 0.55 | USP33 log2FC (Gene 23032): 0.88 | WAPAL log2FC (Gene 23063): 0.61 | TRIM35 log2FC (Gene 23087): 0.20 | CLASP2 log2FC (Gene 23122): 0.55 | POGZ log2FC (Gene 23126): 0.58 | PHF8 log2FC (Gene 23133): -0.18 | SMC5 log2FC (Gene 23137): -0.36 | FBXL7 log2FC (Gene 23194): 0.0429 | PSME4 log2FC (Gene 23198): -0.07 | RRS1 log2FC (Gene 23212): -0.91 | NUP210 log2FC (Gene 23225): -0.44 | PLCB1 log2FC (Gene 23236): 1.31 | BOP1 log2FC (Gene 23246): -0.18 | NUP160 log2FC (Gene 23279): -0.78 | FBXW11 log2FC (Gene 23291): -0.28 | UBR2 log2FC (Gene 23304): 0.76 | USP22 log2FC (Gene 23326): 0.07 | CLASP1 log2FC (Gene 23332): -0.36 | PPP1R13B log2FC (Gene 23368): 0.0642 | DICER1 log2FC (Gene 23405): -0.87 | SIRT1 log2FC (Gene 23411): 1.17 | ITGB3BP log2FC (Gene 23421): 0.69 | PES1 log2FC (Gene 23481): -0.38 | ZFYVE26 log2FC (Gene 23503): 0.40 | SCRIB log2FC (Gene 23513): 0.03 | CCNDBP1 log2FC (Gene 23582): 0.71 | CD2AP log2FC (Gene 23607): 0.81 | NUP62 log2FC (Gene 23636): -0.63 | RABGAP1 log2FC (Gene 23637): 0.55 | PPP1R15A log2FC (Gene 23645): 0.51 | POLA2 log2FC (Gene 23649): -0.87 | ZNF318 log2FC (Gene 24149): 0.53 | RAD54B log2FC (Gene 25788): 0.42 | NIPBL log2FC (Gene 25836): 0.88 | INTS7 log2FC (Gene 25896): -0.23 | AHCTF1 log2FC (Gene 25909): 0.40 | SIN3A log2FC (Gene 25942): 0.89 | SH2B1 log2FC (Gene 25970): -0.49 | EGFL6 log2FC (Gene 25975): 0.03 | SENP6 log2FC (Gene 26054): 0.54 | FBXO6 log2FC (Gene 26270): 0.37 | FBXO5 log2FC (Gene 26271): 0.49 | NUPR1 log2FC (Gene 26471): 0.07 | AATF log2FC (Gene 26574): -0.41 | CKAP2 log2FC (Gene 26586): 0.63 | HBP1 log2FC (Gene 26959): 2.74 | MLH3 log2FC (Gene 27030): 0.23 | MTBP log2FC (Gene 27085): 0.79 | TJP3 log2FC (Gene 27134): 0.31 | VPS4A log2FC (Gene 27183): -0.29 | PDCD4 log2FC (Gene 27250): 1.70 | APEX2 log2FC (Gene 27301): -0.66 | UBE2S log2FC (Gene 27338): -0.66 | EML4 log2FC (Gene 27436): -0.50 | PPP2R3B log2FC (Gene 28227): 0.28 | MCTS1 log2FC (Gene 28985): -0.21 | HIPK2 log2FC (Gene 28996): -0.14 | BRD7 log2FC (Gene 29117): 0.53 | RACGAP1 log2FC (Gene 29127): 0.55 | UHRF1 log2FC (Gene 29128): -0.33 | PSMC3IP log2FC (Gene 29893): -0.14 | GPSM2 log2FC (Gene 29899): 0.32 | SAC3D1 log2FC (Gene 29901): 0.09 | RPA4 log2FC (Gene 29935): 0.55 | ANAPC4 log2FC (Gene 29945): 0.43 | SERTAD1 log2FC (Gene 29950): -0.75 | CUZD1 log2FC (Gene 50624): 0.31 | PARD6A log2FC (Gene 50855): 0.11 | GMNN log2FC (Gene 51053): -0.12 | RPS27L log2FC (Gene 51065): 0.28 | MLXIPL log2FC (Gene 51085): 0.34 | SBDS log2FC (Gene 51119): 0.46 | DYNC1LI1 log2FC (Gene 51143): 0.52 | ING4 log2FC (Gene 51147): 1.59 | TUBE1 log2FC (Gene 51175): 0.0372 | LEF1 log2FC (Gene 51176): -0.89 | HERC5 log2FC (Gene 51191): 0.75 | NUSAP1 log2FC (Gene 51203): 0.74 | DUSP13 log2FC (Gene 51207): 0.0185 | WAC log2FC (Gene 51322): 0.91 | DACT1 log2FC (Gene 51339): 0.04 | FZR1 log2FC (Gene 51343): -0.32 | TAOK3 log2FC (Gene 51347): 1.14 | PRKAG2 log2FC (Gene 51422): -0.54 | SNX9 log2FC (Gene 51429): 0.42 | ANAPC7 log2FC (Gene 51434): -0.32 | LCMT1 log2FC (Gene 51451): 0.00313
